Source: patent US20250114345A1, “COMPOUNDS AND COMPOSITIONS AS CBP/P300 DEGRADERS AND USES THEREOF” (Oncopia Therapeutics, Inc. d/b/a/ SK Life Science Labs, priority 2023, published 2025)

Assays:
[1] = molecular target: T1, p300 (Homo sapiens, UniProt Q09472); assay: P300 degradation, HiBit technology in A549 P300 HiBit cells (2 h); format: cell-based; conditions: 2 hrs post treatment; for Dmax: A549, A549 P300 HiBit cells; for DC50: A549 P300 HiBit cells
T1 construct: host or cells: A549 P300 HiBit cells
Method in brief: (§1)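 Degradation potency and Dmax came from luminescence after 10 min room-temperature lysis with HiBit detection buffer. Beforehand, HiBit-tagged A549 lines received serial compound dilutions (10 mM DMSO stocks) at 37 °C, 5% CO2. CBP cells were read at 24 h, p300 cells at 2 h.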

[2] = molecular target: T2, CBP (Homo sapiens, UniProt Q92793); assay: CBP degradation, HiBit technology in A549 CBP HiBit cells (24 h); format: cell-based; conditions: 24 hrs post treatment
T2 construct: host or cells: A549 CBP HiBit cells
Method in brief: as §1

T2 sequence (Q92793 whole entry): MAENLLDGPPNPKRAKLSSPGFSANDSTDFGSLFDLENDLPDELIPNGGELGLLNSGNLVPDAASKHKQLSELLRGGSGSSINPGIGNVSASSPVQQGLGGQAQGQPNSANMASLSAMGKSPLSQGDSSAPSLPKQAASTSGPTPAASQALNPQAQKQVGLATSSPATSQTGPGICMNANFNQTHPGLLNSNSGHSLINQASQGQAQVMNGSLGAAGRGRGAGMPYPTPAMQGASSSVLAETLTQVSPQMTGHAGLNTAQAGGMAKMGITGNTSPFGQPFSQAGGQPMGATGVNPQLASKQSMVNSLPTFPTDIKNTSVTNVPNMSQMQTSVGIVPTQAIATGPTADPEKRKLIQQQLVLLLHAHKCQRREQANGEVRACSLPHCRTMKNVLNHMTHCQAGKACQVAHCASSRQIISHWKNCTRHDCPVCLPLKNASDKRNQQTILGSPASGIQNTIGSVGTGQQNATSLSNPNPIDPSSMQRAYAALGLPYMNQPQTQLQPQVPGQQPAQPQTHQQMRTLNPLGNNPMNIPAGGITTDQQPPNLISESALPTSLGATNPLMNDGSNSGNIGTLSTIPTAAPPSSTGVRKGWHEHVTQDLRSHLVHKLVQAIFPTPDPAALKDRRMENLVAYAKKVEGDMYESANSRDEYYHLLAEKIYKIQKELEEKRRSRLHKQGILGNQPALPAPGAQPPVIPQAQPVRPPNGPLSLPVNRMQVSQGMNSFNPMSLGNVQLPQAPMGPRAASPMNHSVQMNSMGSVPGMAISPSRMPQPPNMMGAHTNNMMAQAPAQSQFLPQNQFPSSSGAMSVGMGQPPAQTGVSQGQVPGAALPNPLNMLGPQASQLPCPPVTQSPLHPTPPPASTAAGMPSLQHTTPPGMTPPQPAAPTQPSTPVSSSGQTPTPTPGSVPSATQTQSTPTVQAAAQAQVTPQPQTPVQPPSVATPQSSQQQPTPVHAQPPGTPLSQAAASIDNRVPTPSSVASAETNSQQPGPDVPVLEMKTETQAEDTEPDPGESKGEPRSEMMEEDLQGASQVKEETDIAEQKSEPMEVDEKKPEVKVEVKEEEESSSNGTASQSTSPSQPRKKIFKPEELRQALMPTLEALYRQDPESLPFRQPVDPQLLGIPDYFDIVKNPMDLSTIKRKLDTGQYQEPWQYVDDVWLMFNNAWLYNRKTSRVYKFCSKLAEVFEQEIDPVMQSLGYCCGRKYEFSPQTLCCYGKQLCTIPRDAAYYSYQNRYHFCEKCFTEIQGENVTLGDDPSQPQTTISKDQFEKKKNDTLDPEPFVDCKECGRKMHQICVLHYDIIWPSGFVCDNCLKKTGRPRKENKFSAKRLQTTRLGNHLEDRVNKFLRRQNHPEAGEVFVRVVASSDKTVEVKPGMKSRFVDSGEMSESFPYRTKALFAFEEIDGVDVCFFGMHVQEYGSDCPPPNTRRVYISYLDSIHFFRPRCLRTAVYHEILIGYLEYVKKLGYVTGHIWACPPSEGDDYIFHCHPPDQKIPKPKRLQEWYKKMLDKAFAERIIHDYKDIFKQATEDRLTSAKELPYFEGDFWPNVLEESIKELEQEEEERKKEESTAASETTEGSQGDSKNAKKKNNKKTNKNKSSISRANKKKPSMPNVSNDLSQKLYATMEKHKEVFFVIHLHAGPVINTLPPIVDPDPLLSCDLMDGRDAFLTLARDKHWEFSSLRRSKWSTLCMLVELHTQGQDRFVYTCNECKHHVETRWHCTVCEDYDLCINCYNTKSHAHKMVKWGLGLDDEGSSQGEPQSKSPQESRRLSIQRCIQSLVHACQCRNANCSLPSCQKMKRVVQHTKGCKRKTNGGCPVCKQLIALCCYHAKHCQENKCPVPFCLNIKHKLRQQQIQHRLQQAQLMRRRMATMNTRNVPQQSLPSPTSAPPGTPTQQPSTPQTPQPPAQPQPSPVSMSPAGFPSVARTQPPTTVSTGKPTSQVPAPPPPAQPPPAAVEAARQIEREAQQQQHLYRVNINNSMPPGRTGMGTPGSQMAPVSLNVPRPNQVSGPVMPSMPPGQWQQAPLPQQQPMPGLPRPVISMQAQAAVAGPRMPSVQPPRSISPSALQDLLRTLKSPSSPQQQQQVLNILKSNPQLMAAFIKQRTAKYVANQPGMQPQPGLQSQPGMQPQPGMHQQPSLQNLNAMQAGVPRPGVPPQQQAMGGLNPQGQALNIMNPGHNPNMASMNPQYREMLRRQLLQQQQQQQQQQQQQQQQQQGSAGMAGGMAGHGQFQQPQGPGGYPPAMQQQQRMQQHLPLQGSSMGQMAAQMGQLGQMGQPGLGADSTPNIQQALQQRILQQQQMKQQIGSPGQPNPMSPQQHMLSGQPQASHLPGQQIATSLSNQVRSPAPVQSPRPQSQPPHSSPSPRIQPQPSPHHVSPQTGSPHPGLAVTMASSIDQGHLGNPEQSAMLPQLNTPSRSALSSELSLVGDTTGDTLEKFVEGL
T1 sequence (Q09472 whole entry): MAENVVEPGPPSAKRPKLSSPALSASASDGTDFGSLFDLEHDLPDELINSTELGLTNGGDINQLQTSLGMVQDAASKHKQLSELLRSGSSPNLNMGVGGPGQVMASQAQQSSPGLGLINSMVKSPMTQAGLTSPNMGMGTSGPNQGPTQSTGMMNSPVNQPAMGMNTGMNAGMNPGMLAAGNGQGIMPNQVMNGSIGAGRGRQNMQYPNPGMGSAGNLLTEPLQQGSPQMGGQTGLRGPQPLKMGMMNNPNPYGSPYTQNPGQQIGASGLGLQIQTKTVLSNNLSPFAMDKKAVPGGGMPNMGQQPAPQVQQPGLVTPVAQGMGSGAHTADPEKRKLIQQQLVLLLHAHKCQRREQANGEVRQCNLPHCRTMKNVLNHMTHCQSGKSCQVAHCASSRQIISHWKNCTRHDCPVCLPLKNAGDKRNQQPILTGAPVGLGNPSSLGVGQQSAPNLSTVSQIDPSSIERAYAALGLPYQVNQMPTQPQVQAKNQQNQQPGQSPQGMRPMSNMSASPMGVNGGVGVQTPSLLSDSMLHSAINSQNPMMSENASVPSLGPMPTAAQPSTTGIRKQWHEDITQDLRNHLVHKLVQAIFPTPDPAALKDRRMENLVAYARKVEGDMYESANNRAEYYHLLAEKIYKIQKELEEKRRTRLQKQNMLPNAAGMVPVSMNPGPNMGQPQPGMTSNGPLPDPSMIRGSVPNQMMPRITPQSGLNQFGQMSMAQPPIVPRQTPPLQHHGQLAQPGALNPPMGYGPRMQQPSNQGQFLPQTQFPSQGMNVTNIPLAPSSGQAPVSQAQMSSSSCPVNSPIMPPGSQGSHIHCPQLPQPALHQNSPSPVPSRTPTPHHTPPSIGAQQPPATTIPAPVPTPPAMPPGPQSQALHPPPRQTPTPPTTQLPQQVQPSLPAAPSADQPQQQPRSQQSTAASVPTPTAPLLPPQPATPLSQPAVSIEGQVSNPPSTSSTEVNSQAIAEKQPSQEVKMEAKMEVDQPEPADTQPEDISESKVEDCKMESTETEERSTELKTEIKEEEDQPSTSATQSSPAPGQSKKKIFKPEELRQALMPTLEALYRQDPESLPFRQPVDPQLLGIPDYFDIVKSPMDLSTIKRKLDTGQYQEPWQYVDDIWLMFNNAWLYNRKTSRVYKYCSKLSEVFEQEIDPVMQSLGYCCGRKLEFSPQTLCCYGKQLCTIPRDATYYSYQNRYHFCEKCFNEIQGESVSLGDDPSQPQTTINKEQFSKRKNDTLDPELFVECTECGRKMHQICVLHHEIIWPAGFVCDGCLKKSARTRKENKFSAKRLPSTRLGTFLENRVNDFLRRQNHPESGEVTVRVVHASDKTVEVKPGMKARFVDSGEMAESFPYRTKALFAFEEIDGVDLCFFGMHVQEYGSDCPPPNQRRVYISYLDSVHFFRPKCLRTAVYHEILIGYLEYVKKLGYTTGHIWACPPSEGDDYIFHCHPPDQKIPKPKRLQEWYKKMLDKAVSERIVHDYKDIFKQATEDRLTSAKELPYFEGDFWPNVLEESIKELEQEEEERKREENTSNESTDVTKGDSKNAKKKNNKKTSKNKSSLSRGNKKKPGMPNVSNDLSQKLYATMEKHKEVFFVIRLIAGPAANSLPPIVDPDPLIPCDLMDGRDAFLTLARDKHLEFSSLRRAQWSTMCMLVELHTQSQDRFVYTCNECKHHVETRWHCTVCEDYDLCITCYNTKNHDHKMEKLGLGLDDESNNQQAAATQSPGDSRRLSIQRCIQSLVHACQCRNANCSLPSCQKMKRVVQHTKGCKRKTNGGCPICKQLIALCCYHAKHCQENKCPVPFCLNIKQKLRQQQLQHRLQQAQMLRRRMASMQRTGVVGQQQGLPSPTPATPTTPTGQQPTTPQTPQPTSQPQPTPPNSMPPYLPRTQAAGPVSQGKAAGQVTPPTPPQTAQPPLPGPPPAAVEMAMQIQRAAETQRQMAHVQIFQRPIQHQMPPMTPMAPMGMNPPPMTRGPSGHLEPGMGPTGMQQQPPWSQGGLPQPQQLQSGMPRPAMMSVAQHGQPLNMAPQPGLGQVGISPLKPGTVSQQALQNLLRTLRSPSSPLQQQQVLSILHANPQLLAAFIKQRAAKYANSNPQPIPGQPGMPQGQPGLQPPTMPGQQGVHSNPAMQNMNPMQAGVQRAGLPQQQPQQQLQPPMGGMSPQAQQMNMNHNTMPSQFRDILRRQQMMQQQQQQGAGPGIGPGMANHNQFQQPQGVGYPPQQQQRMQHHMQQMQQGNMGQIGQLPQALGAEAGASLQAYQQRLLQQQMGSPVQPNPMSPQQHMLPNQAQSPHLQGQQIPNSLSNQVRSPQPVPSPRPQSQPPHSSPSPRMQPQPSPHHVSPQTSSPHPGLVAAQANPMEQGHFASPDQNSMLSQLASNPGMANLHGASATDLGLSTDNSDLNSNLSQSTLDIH

Compound	Dmax [1] [%]	DC50 [1] [µM]	DC50 [2] [µM]	Dmax [2] [%]
Cc1cc2c(N3CCCc4nc(-c5ccc(C(=O)NCC#Cc6cc7c(C8CCC(=O)NC8=O)cccc7o6)nc5)ncc43)cc(C3(F)CCOCC3)cc2n(C)c1=O (stereo not shown) [Example B82, N-(3-(4-(2,6-dioxopiperidin-3-yl)benzofuran-2-yl)prop-2-yn-1-yl)-5-(5-(7-(4-fluorotetrahydro-2H-pyran-4-yl)-1,3-dimethyl-2-oxo-1,2-dihydroquinolin-5-yl)-5,6,7,8-tetrahydropyrido [3,2-d]pyrimidin-2-yl)picolinamide]	> 80	0.001 to 0.0099	> 1	< 20
CC(C)c1cc(N2CCCc3nc(-c4ccc(C(=O)NCC#Cc5cc6c(C7CCC(=O)NC7=O)cccc6o5)nc4)ncc32)cc2c1n(C)c(=O)n2C (stereo not shown) [Example A237, N-(3-(4-(2,6-dioxo-piperidin-3-yl)benzofuran-2-yl)prop-2-yn-1-yl)-5-(5-(7-isopropyl-1,3-dimethyl-2-oxo-2,3-dihydro-1H-benzo [d]imidazol-5-yl)-5,6,7,8-tetrahydro-pyrido[3,2-d]pyrimidin-2-yl)picolinamide]	> 80	< 0.001	0.1 to 0.999	< 20
CC(C)c1cc(-c2cccc3cc(-c4ccc(C(=O)NCC#Cc5ccc6ccnc(C7CCC(=O)NC7=O)c6c5)nc4)ncc23)cc2c1n(C)c(=O)n2C (stereo not shown) [Example A10, N-(3-(1-(2,6-Dioxopiperidin-3-yl)isoquinolin-7-yl)prop-2-yn-1-yl)-5-(8-(7-isopropyl-1,3-dimethyl-2-oxo-2,3-dihydro-1H-benzo[d]imidazol-5-yl)isoquinolin-3-yl)picolinamide]	60 to 79	0.01 to 0.099	> 1	< 20
CC(C)c1cc(-c2cccc3cc(-c4ccc(C(=O)NCC#Cc5cc6c(C7CCC(=O)NC7=O)nccc6s5)nc4)ncc23)cc2c1n(C)c(=O)n2C (stereo not shown) [Example A208, N-(3-(4-(2,6-dioxo-piperidin-3-yl)thieno[3,2-c]pyridin-2-yl)prop-2-yn-1-yl)-5-(8-(7-isopropyl-1,3-dimethyl-2-oxo-2,3-dihydro-1H-benzo[d]imidazol-5-yl)isoquinolin-3-yl)picolinamide]	> 80	0.001 to 0.0099	0.01 to 0.099	60 to 79
Cc1cc2c(N3CCCc4nc(-c5ccc(C(=O)NCC#Cc6ccc7occ(C8CCC(=O)NC8=O)c7c6)nc5)ncc43)nc(N3CC4CCC(C3)O4)cc2n(C)c1=O (stereo not shown) [Example B115, 5-(5-(7-(8-oxa-3-azabicyclo[3.2.1]octan-3-yl)-1,3-dimethyl-2-oxo-1,2-dihydro-1,6-naphthyridin-5-yl)-5,6,7,8-tetrahydropyrido [3,2-d]pyrimidin-2-yl)-N-(3-(3-(2,6-dioxopiperidin-3-yl)benzofuran-5-yl)prop-2-yn-1-yl)picolinamide]	60 to 79	0.001 to 0.0099	> 1	< 20
Cn1c(=O)n(C)c2cc(-c3cccc4cc(-c5ccc(C(=O)NCC#Cc6ccc7nnn(C8CCC(=O)NC8=O)c7c6)nc5)ncc34)ccc21 (stereo not shown) [Example A163, 5-(8-(1,3-dimethyl-2-oxo-2,3-dihydro-1H-benzo[d]imidazol-5-yl)isoquinolin-3-yl)-N-(3-(1-(2,6-dioxo-piperidin-3-yl)-1H-benzo[d][1,2,3]triazol-6-yl)prop-2-yn-1-yl)picolinamide]	> 80	< 0.001	> 1	< 20
Cc1cc2c(-c3cccc4cc(-c5ccc(C(=O)NCC#Cc6ccc7occ(C8CCC(=O)NC8=O)c7c6)nc5)ncc34)nc(N3CC(O)C3)cc2n(C)c1=O (stereo not shown) [Example B66, N-(3-(3-(2,6-dioxopiperidin-3-yl)benzofuran-5-yl)prop-2-yn-1-yl)-5-(8-(7-(3-hydroxy-azetidin-1-yl)-1,3-dimethyl-2-oxo-1,2-dihydro-1,6-naphthyridin-5-yl)isoquinolin-3-yl) picolinamide]	> 80	< 0.001	> 1	< 20
